Test results published in patent publication US20140018380A1, “BICYCLIC HETEROARYL COMPOUNDS AS GPR119 RECEPTOR AGONISTS” (CENTAURUS BIOPHARMA CO., LTD., priority 2011, published 2014).

Biological target: T1, human GPR119 (Homo sapiens, UniProt Q8TDV5)
T1 construct: host or cells: CHO cells (American Type Culture Collection)
T1 sequence (Q8TDV5 1-335): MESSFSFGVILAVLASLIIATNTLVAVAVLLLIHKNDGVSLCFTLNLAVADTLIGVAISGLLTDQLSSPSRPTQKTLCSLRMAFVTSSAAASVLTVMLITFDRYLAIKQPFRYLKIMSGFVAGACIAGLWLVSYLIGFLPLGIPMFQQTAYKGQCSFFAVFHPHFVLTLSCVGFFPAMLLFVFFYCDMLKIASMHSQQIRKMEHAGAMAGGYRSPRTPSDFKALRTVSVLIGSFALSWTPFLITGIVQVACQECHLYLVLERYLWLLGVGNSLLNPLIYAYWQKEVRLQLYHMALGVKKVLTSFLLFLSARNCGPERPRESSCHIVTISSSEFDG
Assay: cAMP assay (HTRF) with human GPR119 stable transfected CHO cells
Assay type: cell-based
Settings: functional agonist activity; intracellular cAMP (HTRF) in human GPR119 stable transfected CHO cells, 30 min at 37° C.
Method: Testing of Compounds of the Invention In Vitro (cAMP Assay)
The functional agonist activities of compounds of the invention were characterized using a cAMP assay with human GPR119 stable transfected Chinese hamster ovary (CHO) cells (American Type Culture Collection, Manassas Va., USA). CHO cells were stable transfected with GPR119/pcDNA3.0 (SC307189, Origene). Transfected cells were then selected and maintained in culture media containing […] geneticin. Stable clones were obtained by limiting dilution and the expression of human-GPR119 in CHO cells was confirmed by HTRF (Homogeneous Time-Resolved Fluorescence) cAMP assay. The clones generating the best agonist stimulated signal window were selected for the cAMP assay development.
The cells were cultured in Dulbecco's Modified Eagle Medium (Invitrogen Corporation, Carlsbad, Calif., USA) containing 10% Fetal bovine serum, 1% Pen/Strep and […] G418 and grown in 75 cm2 tissue culture flasks until they reached 75-80% confluence.
The cells were harvested 16 hours prior to assay with 1 ml 0.05% Trypsine, washed with PBS and then plated into 96-well plates (8000 cells/well) containing DMEM medium and 10% BSA. Prior to assay, the cells were washed with assay stimulation buffer (HBSS containing 10 mM IBMX, 20 mM HEPES, 0.1% BSA) twice. Then cells were incubated for 30 min at 37° C. in the absence or presence of varying concentrations of agonists (i.e., the compounds of the present invention) in assay stimulating buffer with 0.1% DMSO. The intracellular levels of cAMP generated in the GPR119 transfected CHO cells were measured using the HTRF kit (CisBio, FR.). In brief, 20 ul d2-labeled cAMP and 20 ul cryptated labeled anti-cAMP antibody were added into 40 ul cells treated with agonist and the plates were incubated for 1 hour at room temperature in the dark. Cells were then transferred into white 96-well plate and the signal generated was measured using Envision (Perkin-Elmer, Norwalk, Conn.). EC50 values were calculated using the GraphPad Prism 5 program.

Row | Structure (SMILES) | EC50
1 | CCc1cnc(N2CCC(n3ccc4cc(-c5ccc(S(C)(=O)=O)cc5F)ccc43)CC2)nc1 [Example 11, 1-(1-(5-ethylpyrimidin-2-yl)piperidin-4-yl)-5-(2-fluoro-4-(methylsulfony)phenyl)-1H-indole] | < 0.5 µM
2 | CCc1cnc(N2CCC(n3cc(C)c4cc(-c5ccc(S(C)(=O)=O)cc5)ccc43)CC2)nc1 [Example 5, 1-(1-(5-ethylpyrimidin-2-yl)piperidin-4-yl)-3-methyl-5-(4-(methylsulfone)phenyl)-1H-indole] | < 1 µM
3 | CCc1cnc(N2CCC(n3nnc4cc(-c5ccc(-n6cnnn6)cc5)cnc43)CC2)nc1 [Example 2, 6-(4-(1H-tetrazol-1-yl)phenyl)-3-(1-(5-ethylpyrimidin-2-yl)piperidin-4-yl)-3H-[1,2,3]triazol o[4,5-b]pyridine] | < 0.5 µM
4 | CCc1cnc(N2CCC(n3ccc4cc(-c5ccc(-n6cnnn6)cc5)c(F)cc43)CC2)nc1 [Example 12, 5-(4-(1H-tetrazol-1-yl)phenyl)-1-(1-(5-ethylpyrimidin-2-yl)piperidin-4-yl)-6-fluoro-1H-indole] | < 2 µM
5 | CCc1cnc(N2CCC(n3ccc4cc(-c5ccc(S(C)(=O)=O)cc5)c(F)cc43)CC2)nc1 [Example 6, 1-(1-(5-ethylpyrimidin-2-yl)piperidin-4-yl)-6-fluoro-5-(4-(methylsulfony)phenyl)-1H-indole] | < 0.1 µM
6 | CCc1cnc(N2CCC(n3cc(Cl)c4cc(-c5ccc(S(C)(=O)=O)cc5)ccc43)CC2)nc1 [Example 8, 3-chloro-1-(1-(5-ethylpyrimidin-2-yl)piperidin-4-yl)-5-(4-(methylsulfonl)phenyl)-1H-indole] | < 0.5 µM
7 | CCc1cnc(N2CCC(n3ccc4cc(-c5ccc(S(C)(=O)=O)cc5)ncc43)CC2)nc1 [Example 9, 1-(1-(5-ethylpyrimidin-2-yl)piperidin-4-yl)-5-(4-(methylsulfonyl)phenyl)-1H-pyrrolo[2,3-c]pyridine] | < 0.2 µM
8 | CCc1cnc(N2CCC(n3ccc4cc(-c5ccc(C#N)c(F)c5)c(F)cc43)CC2)nc1 [Example 13, 4-(1-(1-(5-ethylpyrimidin-2-yl)piperidin-4-yl)-6-fluoro-1H-indol-5-yl)-2-fluorobenzonitrile] | < 0.5 µM
9 | CCc1cnc(N2CCC(n3ccc4cc(-c5ccc(-n6cnnn6)cc5)ccc43)CC2)nc1 [Example 3, 5-(4-(1H-tetrazol-1-yl)phenyl)-1-(1-(5-ethylpyrimidin-2-yl)piperidin-4-yl)-1H-indole] | < 0.3 µM
10 | CC(C)(C)OC(=O)N1CCC(n2ccc3cc(-c4ccc(S(C)(=O)=O)cc4)c(F)cc32)CC1 [Example 7, tert-butyl 4-(6-fluoro-5-(4-(methylsulfonyl)phenyl)-1H-indol-1-yl)piperidine-1-carboxylate] | < 0.1 µM
11 | CC(C)(C)OC(=O)N1CCC(n2ccc3cc(-c4ccc(S(C)(=O)=O)cc4)ccc32)CC1 [Example 10, tert-butyl 4-(5-(4-(methylsulfonyl)phenyl)-1H-indol-1-yl)piperidine-1-carboxylate] | < 0.2 µM
12 | CCc1cnc(N2CCC(n3ccc4cc(-c5ccc(S(C)(=O)=O)cc5)ccc43)CC2)nc1 [Example 1, 1-(1-(5-ethylpyrimidin-2-yl)piperidin-4-yl)-5-(4-(methylsulfonyl)phenyl)-1H-indole] | < 0.3 µM

Continued, values first:

Row | EC50 | Structure (SMILES)
13 | < 0.3 µM | CC(C)(C)OC(=O)N1CCC(n2ncc3cc(-c4ccc(S(C)(=O)=O)cc4)ccc32)CC1 [Example 16, tert-butyl 4-(5-(4-(methylsulfonyl)phenyl)-1H-indazol-1-yl)piperidine-1-carboxylate]
14 | < 0.2 µM | CCc1cnc(N2CCC(n3ncc4cc(-c5ccc(S(C)(=O)=O)cc5)c(F)cc43)CC2)nc1 [Example 18, 1-(1-(5-ethylpyrimidin-2-yl)piperidin-4-yl)-6-fluoro-5-(4-(methylsulfonyl)phenyl)-1H-indazole]
15 | < 0.1 µM | CC(C)c1noc(N2CCC(n3ccc4cc(-c5ccc(S(C)(=O)=O)cc5)c(F)cc43)CC2)n1 [Example 19, 5-(4-(6-fluoro-5-(4-(methylsulfonyl)phenyl)-1H-indol-1-yl)piperidin-1-yl)-3-isopropyl-1,2,4-oxadiazole]
16 | < 0.5 µM | CCc1cnc(N2CCC(n3ccc4cc(-c5ccc(C#N)cc5)c(F)cc43)CC2)nc1 [Example 14, 4-(1-(1-(5-ethylpyrimidin-2-yl)piperidin-4-yl)-6-fluoro-1H-indol-5-yl)benzonitrile]
17 | < 1 µM | CCc1cnc(N2CCC(n3ccc4cc(-c5ccc(NS(C)(=O)=O)cc5)c(F)cc43)CC2)nc1 [Example 15, N-(4-(1-(1-(5-ethylpyrimidin-2-yl)piperidin-4-yl)-6-fluoro-1H-indol-5-yl)phenyl)methanesulfonamide]
18 | < 0.05 µM | CCc1cnc(N2CCC(n3ncc4cc(-c5ccc(-n6cnnn6)cc5)c(F)cc43)CC2)nc1 [Example 17, 5-(4-(1H-tetrazol-1-yl)phenyl)-1-(1-(5-ethylpyrimidin-2-yl)piperidin-4-yl)-6-fluoro-1H-indazole]
